# Measurements from publication PMC3726784, “Synthesis, Structure and Antibacterial Activity of Potent DNA Gyrase Inhibitors: N′-Benzoyl-3-(4-Bromophenyl)-1H-Pyrazole-5-Carbohydrazide Derivatives” (PLoS ONE, 2013).
# What was measured:
# [1] = system: Staphylococcus aureus ATCC 6538; experiment: In vitro antibacterial assay (MIC, MTT colorimetric method); type: cell-based; conditions: S. aureus ATCC 6538, MH medium, 37°C, 24 h; for MIC: Staphylococcus aureus, ATCC6538, read-out: Minimum inhibitory concentrations, S. aureus
# Method: (§1) The activities of synthesized compounds were tested against Bacillus subtilis ATCC 6633, Escherichia coli ATCC 35218, Pseudomonas aeruginosa ATCC 27853 and Staphylococcus aureus ATCC 6538 which may be causal agents of some serious infections in humans using MH medium (Mueller-Hinton medium: casein hydrolysate 17.5 g, soluble starch 1.5 g, beef extract 1000 mL). Also included are the activities of reference compounds kanamycin.
# (§2) The antibacterial activity of the synthesized compounds was tested against B. subtilis, E. coli, P. aeruginosa and S. aureus using MH medium (Mueller-Hinton medium: casein hydrolysate 17.5 g, soluble starch 1.5 g, beef extract 1000 mL). The MICs (minimum inhibitory concentrations) of the test compounds were determined by a colorimetric method using the dye MTT (3-(4,5-dimethylth-iazol-2-yl)-2,5-diphenyl tetrazoliumbromide). A stock solution of the synthesized compound (100 µg/mL) in DMSO was prepared and graded quantities of the test compounds were incorporated in specified quantity of sterilized liquid MH medium. A specified quantity of the medium containing the compound was poured into microtitration plates. Suspension of the microorganism was prepared to contain approximately 10^5 cfu/mL and applied to microtitration plates with serially diluted compounds in DMSO to be tested and incubated at 37°C for 24 h. After the MICs were visually determined on each of the microtitration plates, 50 µL of PBS (phosphate buffered saline 0.01 mol/L, pH 7.4, Na2HPO4·12H2O 2.9 g, KH2PO4 0.2 g, NaCl 8.0 g, KCl 0.2 g, distilled water 1000 mL) containing 2 mg of MTT/mL was added to each well. Incubation was continued at room temperature for 4–5 h. The content of each well was removed, and 100 µL of isopropanol containing 5% 1 mol/L HCl was added to extract the dye. After 12 h of incubation at room temperature, the optical density (OD) was measured with a microplate reader at 550 nm.
# [2] = system: Pseudomonas aeruginosa ATCC 27853; experiment: as above; type: cell-based; conditions: P. aeruginosa ATCC 27853, MH medium, 37°C, 24 h; for MIC: Pseudomonas aeruginosa, ATCC27853, read-out: Minimum inhibitory concentrations, P.aeruginosa
# Method: as §1, §2
# [3] = system: Bacillus subtilis ATCC 6633; experiment: as above; type: cell-based; conditions: B. subtilis ATCC 6633, MH medium, 37°C; for MIC: Bacillus subtilis, ATCC6633, 24 h, read-out: Minimum inhibitory concentrations, B. subtilis
# Method: as §1, §2
# [4] = system: Escherichia coli ATCC 35218; experiment: as above; type: cell-based; conditions: E. coli ATCC 35218, MH medium, 37°C, 24 h; for MIC: Escherichia coli, ATCC35218, read-out: Minimum inhibitory concentrations, E. coli
# Method: as §1, §2
# B. subtilis DNA gyrase = B. subtilis DNA gyrase (Bacillus subtilis, UniProt P05652); experiment: biochemical
# B. subtilis DNA gyrase, sequence (P05652 whole entry): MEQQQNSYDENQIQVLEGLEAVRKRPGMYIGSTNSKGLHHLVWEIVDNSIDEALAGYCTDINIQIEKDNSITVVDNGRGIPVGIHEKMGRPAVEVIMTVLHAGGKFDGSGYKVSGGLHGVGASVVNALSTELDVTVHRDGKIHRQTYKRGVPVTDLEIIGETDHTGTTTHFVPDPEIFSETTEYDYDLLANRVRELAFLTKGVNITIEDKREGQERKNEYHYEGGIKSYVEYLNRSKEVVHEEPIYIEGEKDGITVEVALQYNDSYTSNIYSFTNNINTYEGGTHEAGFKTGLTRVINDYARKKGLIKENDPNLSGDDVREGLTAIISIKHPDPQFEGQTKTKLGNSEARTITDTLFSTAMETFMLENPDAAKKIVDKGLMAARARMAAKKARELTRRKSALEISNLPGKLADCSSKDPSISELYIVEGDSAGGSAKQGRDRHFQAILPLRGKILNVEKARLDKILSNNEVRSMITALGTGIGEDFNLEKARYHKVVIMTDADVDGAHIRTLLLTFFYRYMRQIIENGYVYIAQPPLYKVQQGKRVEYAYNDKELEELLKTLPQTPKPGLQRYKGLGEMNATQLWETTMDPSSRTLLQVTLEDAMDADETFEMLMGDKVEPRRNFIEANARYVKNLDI
# B. subtilis DNA gyrase, sequence (P05653 whole entry, further chain): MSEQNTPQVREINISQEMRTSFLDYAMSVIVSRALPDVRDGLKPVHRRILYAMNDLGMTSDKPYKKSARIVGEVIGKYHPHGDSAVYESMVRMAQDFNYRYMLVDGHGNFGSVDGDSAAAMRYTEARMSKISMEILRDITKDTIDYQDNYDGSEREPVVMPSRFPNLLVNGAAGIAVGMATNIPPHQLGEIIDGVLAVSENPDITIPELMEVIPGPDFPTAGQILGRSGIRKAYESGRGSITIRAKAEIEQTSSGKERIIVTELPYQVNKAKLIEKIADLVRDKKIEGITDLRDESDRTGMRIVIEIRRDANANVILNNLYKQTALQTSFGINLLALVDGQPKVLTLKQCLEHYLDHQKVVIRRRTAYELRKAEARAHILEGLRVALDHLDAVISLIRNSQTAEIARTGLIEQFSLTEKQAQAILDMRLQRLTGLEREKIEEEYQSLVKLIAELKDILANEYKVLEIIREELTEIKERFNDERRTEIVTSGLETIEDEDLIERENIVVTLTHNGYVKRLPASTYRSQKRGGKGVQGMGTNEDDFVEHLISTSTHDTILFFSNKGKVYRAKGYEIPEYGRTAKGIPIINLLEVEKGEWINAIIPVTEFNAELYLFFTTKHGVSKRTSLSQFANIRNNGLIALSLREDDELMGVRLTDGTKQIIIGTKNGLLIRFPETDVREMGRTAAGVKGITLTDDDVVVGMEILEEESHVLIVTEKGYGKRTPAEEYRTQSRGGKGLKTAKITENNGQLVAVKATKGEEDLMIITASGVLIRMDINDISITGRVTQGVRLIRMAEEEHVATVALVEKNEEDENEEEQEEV
# Method: (§3) To elucidate the mechanism by which the pyrazole derivatives induce antibacterial activity, the inhibitory activities of selected compounds were examined against DNA gyrase isolated from B. subtilis and S. aureus.
# The B. subtilis DNA gyrase were purified by the methods of E. Orr.: Cells were suspended in an equal volume of 25 mM HEPES-KOH (pH 8.0)-100 mM KCl and stored frozen at −70°C. The frozen cell suspension was thawed and diluted with an equal volume of 25 mM HEPES-KOH (pH 8.0)-0.4 M sucrose-20 mM magnesium acetate-1 mM dithiothreitol-5 mM PMSF. All operations were performed at 0–4°C. Lysozyme was added to a final concentration, and the mixture was incubated for 2.5 h. One-third volume of 2 M KCl-1.5% Brij was added, and the incubation was continued for 15 min. The lysate was then centrifuged for 90 min intirotor. The supernatant was adjusted to a KCl concentration of 0.2 M by dilution with 25 mM HEPES-KOH (pH 8.0)-1 mM dithiothreitol-1mMEDTA-0.5 mM pmsf-10% ethylene glycol and applied to a column. The column was washed with starting buffer and eluted successively with buffer containing 20 mM ATP-25 mM magnesium acetate-0.2 M KCI, buffer (2 M KCI), and 5 M urea in buffer (0.2 M KCl).Protein-containing fractions were dialyzed against buffer (0.05 MKCI). Supercoiling and decatenation were carried out by the F. Blanche method.
# S. aureus DNA gyrase = target: T1, S. aureus DNA gyrase (Staphylococcus aureus, UniProt P0A0K8); experiment: biochemical; conditions: enzyme purified from S. aureus, supercoiling
# T1 construct: purified by the F. Blanche [25] from a crude extract of S. aureus; endogenous in cells
# T1 sequence (P0A0K8 whole entry): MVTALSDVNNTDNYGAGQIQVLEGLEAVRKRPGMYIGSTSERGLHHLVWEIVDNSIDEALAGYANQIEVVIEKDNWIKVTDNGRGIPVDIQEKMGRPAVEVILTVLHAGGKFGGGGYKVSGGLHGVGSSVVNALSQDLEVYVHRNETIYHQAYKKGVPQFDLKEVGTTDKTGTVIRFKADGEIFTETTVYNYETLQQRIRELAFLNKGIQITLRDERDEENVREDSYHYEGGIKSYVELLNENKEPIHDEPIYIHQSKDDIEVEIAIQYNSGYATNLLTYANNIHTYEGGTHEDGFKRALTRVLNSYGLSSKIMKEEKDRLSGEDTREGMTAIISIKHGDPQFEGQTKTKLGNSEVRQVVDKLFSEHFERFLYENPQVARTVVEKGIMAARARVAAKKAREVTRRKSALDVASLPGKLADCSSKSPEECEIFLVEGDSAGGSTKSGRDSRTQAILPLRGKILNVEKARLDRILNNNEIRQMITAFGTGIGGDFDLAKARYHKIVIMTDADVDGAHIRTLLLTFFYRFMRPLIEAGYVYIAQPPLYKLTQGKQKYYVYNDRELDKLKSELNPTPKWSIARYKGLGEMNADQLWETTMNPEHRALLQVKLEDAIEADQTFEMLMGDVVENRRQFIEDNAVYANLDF
# T1 sequence (P20831 whole entry partner): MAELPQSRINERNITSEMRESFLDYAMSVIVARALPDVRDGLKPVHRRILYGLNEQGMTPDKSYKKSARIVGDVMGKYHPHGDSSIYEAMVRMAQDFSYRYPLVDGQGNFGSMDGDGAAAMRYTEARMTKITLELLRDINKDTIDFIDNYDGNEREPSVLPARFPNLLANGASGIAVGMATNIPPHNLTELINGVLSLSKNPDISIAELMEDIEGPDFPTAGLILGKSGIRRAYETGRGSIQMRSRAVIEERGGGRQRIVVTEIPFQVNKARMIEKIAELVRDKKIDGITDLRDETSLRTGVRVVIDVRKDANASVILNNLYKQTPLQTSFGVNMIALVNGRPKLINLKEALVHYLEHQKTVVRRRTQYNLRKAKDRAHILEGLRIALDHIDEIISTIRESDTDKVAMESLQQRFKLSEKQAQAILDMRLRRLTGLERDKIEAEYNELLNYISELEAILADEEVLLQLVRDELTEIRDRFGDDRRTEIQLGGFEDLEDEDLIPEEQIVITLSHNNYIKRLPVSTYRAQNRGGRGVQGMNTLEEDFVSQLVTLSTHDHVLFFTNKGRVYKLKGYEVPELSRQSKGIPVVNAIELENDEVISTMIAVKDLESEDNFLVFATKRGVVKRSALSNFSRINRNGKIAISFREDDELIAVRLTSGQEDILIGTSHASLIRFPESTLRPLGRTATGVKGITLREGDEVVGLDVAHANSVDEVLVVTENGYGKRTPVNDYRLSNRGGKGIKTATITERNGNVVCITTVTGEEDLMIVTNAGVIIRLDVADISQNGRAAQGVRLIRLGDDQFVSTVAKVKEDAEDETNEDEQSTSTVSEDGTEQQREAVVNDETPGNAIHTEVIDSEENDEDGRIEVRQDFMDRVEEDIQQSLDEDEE
# Text: as §3
# The S. aureus DNA gyrase were purified by the F. Blanche from a crude extract of S. aureus and cultivated with medium B, which was composed of 10 g of polypeptone, 2 g of yeast extract, 8 g of Na2HPO4, 2 g of KH2PO4, 1.2 g of (NH4)2SO4, 0.2 g of MgSO4, 4 g of glucose perliter of distilled water. Supercoiling and decatenation were performed according to F. B lanche.
Compound,MIC [1],MIC [2],MIC [3],MIC [4],melting point,IC50 (B. subtilis DNA gyrase),IC50 (S. aureus DNA gyrase),"Minimum inhibitory concentrations, S. aureus [1]","Minimum inhibitory concentrations, P.aeruginosa [2]","Minimum inhibitory concentrations, B. subtilis ([3]; 24 h)","Minimum inhibitory concentrations, E. coli [4]"
"O=C(NNC(=O)c1cc(-c2ccc(Br)cc2)n[nH]1)c1ccc(F)cc1 [3a, 3-(4-Bromophenyl)-N'-(4-fluorobenzoyl)-1H-pyrazole-5-carbohydrazide]",15 µg/mL,50 µg/mL,12.5 µg/mL,> 50 µg/mL,284 to 287 °C,,,,,,
"O=C(NNC(=O)c1cc(-c2ccc(Br)cc2)n[nH]1)c1ccc(Cl)cc1 [3b, 3-(4-Bromophenyl)-N'-(4-chlorobenzoyl)-1H-pyrazole-5-carbohydrazide]",15 µg/mL,50 µg/mL,17.1 µg/mL,> 50 µg/mL,280 to 283 °C,,,,,,
"O=C(NNC(=O)c1cc(-c2ccc(Br)cc2)n[nH]1)c1ccc(Br)cc1 [3c, N'-(4-Bromobenzoyl)-3-(4-bromophenyl)-1H-pyrazole-5-carbohydrazide]",13.8 µg/mL,50 µg/mL,10.2 µg/mL,> 50 µg/mL,297 to 298 °C,,,,,,
"Cc1ccc(C(=O)NNC(=O)c2cc(-c3ccc(Br)cc3)n[nH]2)cc1 [3d, 3-(4-Bromophenyl)-N'-(4-methylbenzoyl)-1H-pyrazole-5-carbohydrazide]",3.66 µg/mL,12.5 µg/mL,,50 µg/mL,270 to 272 °C,6.51 µM,3.76 µM,,,,
"O=C(NNC(=O)c1cc(-c2ccc(Br)cc2)n[nH]1)c1ccc([N+](=O)[O-])cc1 [3f, 3-(4-Bromophenyl)-N'-(4-nitrobenzoyl)-1H-pyrazole-5-carbohydrazide]",18 µg/mL,> 50 µg/mL,25 µg/mL,> 50 µg/mL,255 to 257 °C,,,,,,
"O=C(NNC(=O)c1cc(-c2ccc(Br)cc2)n[nH]1)c1cccc(F)c1 [3g, 3-(4-Bromophenyl)-N'-(3-fluorobenzoyl)-1H-pyrazole-5-carbohydrazide]",13 µg/mL,50 µg/mL,25 µg/mL,> 50 µg/mL,278 to 280 °C,,,,,,
"O=C(NNC(=O)c1cc(-c2ccc(Br)cc2)n[nH]1)c1cccc(Cl)c1 [3h, 3-(4-Bromophenyl)-N'-(3-chlorobenzoyl)-1H-pyrazole-5-carbohydrazide]",12.6 µg/mL,50 µg/mL,6.25 µg/mL,> 50 µg/mL,246 to 248 °C,,,,,,
"O=C(NNC(=O)c1cc(-c2cccc(Br)c2)n[nH]1)c1ccc(Br)cc1 [3i, N'-(4-Bromobenzoyl)-3-(3-bromophenyl)-1H-pyrazole-5-carbohydrazide]",12.1 µg/mL,50 µg/mL,12.6 µg/mL,> 50 µg/mL,229 to 231 °C,,,,,,
"Cc1cccc(C(=O)NNC(=O)c2cc(-c3ccc(Br)cc3)n[nH]2)c1 [3j, 3-(4-Bromophenyl)-N'-(3-methylbenzoyl)-1H-pyrazole-5-carbohydrazide]",1.12 µg/mL,12.5 µg/mL,,50 µg/mL,287 to 288 °C,8.14 µM,0.326 µM,,,,
"COc1cccc(C(=O)NNC(=O)c2cc(-c3ccc(Br)cc3)n[nH]2)c1 [3k, 3-(4-Bromophenyl)-N'-(3-methoxybenzoyl)-1H-pyrazole-5-carbohydrazide]",0.78 µg/mL,12.5 µg/mL,,50 µg/mL,251 to 253 °C,0.602 µM,0.361 µM,,,,
"O=C(NNC(=O)c1cc(-c2ccc(Br)cc2)n[nH]1)c1cccc([N+](=O)[O-])c1 [3l, 3-(4-Bromophenyl)-N'-(3-nitrobenzoyl)-1H-pyrazole-5-carbohydrazide]",10.8 µg/mL,50 µg/mL,10.8 µg/mL,> 50 µg/mL,275 to 276 °C,,,,,,
"O=C(NNC(=O)c1ccccc1F)c1cc(-c2ccc(Br)cc2)n[nH]1 [3m, 3-(4-Bromophenyl)-N'-(2-fluorobenzoyl)-1H-pyrazole-5-carbohydrazide]",22.1 µg/mL,> 50 µg/mL,25 µg/mL,> 50 µg/mL,297 to 298 °C,,,,,,
"O=C(NNC(=O)c1ccccc1Cl)c1cc(-c2ccc(Br)cc2)n[nH]1 [3n, 3-(4-Bromophenyl)-N'-(2-chlorobenzoyl)-1H-pyrazole-5-carbohydrazide]",17 µg/mL,> 50 µg/mL,12.2 µg/mL,> 50 µg/mL,280 to 281 °C,,,,,,
"O=C(NNC(=O)c1cc(-c2ccccc2Br)n[nH]1)c1ccc(Br)cc1 [3o, N'-(4-Bromobenzoyl)-3-(2-bromophenyl)-1H-pyrazole-5-carbohydrazide]",21 µg/mL,> 50 µg/mL,23.1 µg/mL,> 50 µg/mL,281 to 283 °C,,,,,,
"COc1ccccc1C(=O)NNC(=O)c1cc(-c2ccc(Br)cc2)n[nH]1 [3q, 3-(4-Bromophenyl)-N'-(2-methoxybenzoyl)-1H-pyrazole-5-carbohydrazide]",18.7 µg/mL,> 50 µg/mL,20.6 µg/mL,> 50 µg/mL,287 to 290 °C,,,,,,
"O=C(NNC(=O)c1ccccc1[N+](=O)[O-])c1cc(-c2ccc(Br)cc2)n[nH]1 [3r, 3-(4-Bromophenyl)-N'-(2-nitrobenzoyl)-1H-pyrazole-5-carbohydrazide]",25 µg/mL,> 50 µg/mL,50 µg/mL,> 50 µg/mL,266 to 267 °C,,,,,,
Penicillin [reference compound],,,,,,,,1.56 µg/mL,6.25 µg/mL,1.56 µg/mL,6.25 µg/mL
